# Assay results taken from patent US20170334899A1, “AMINO-SUBSTITUTED ISOTHIAZOLES” (Bayer Pharma Aktiengesellschaft, priority 2014, published 2017).
# Where “and” joins values, the source holds several entries; their conditions need not be identical. Identical values can stand only once.
# Molecular target: T1, human kinase Mps-1 (Homo sapiens, UniProt P33981)
# T1 construct: N-terminally GST-tagged human full length recombinant Mps-1 kinase; GST (N); purchased Invitrogen, Karslruhe, Germany PV4071
# T1 sequence (P33981 1-857): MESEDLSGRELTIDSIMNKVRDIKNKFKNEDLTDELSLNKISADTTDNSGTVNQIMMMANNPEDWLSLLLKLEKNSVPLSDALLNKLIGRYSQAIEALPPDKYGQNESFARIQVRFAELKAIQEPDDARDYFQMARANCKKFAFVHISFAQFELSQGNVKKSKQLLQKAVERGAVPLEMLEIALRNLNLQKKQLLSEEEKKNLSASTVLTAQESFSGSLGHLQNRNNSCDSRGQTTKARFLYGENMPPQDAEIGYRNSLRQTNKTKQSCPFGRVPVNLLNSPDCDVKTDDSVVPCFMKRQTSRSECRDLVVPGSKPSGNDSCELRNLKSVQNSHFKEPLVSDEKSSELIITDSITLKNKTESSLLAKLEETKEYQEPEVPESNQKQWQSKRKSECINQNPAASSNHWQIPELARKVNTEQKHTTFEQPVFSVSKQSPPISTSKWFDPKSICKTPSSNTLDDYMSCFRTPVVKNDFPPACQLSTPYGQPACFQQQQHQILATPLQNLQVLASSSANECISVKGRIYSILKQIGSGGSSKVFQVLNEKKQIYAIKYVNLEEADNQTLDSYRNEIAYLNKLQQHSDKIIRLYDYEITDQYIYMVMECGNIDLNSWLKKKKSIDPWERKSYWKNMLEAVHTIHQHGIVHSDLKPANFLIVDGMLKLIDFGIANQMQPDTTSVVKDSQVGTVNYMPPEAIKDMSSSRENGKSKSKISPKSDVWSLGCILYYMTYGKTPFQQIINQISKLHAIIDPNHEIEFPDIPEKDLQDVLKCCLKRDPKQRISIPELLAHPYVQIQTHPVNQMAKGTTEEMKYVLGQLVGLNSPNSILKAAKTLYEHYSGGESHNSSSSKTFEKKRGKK
# Test: Mps-1 kinase assay (TR-FRET)
# Format: biochemical
# Conditions: Mps-1 TR-FRET kinase assay; avg; read-out: Mps1 avg (IC50 [mol/l])
# Procedure, shortened: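 GST-tagged full-length recombinant human Mps-1 (~0.5 nM) pre-incubated 15 min with compound, then reacted 60 min at 22 °C with 10 μM ATP and 1 μM biotinylated peptide in Hepes pH 7.7 buffer. EDTA-stopped; TR-FRET (Eu anti-phospho-Ser/Thr to SA-XLent) 665/620 nm ratio normalised to no-inhibitor and no-enzyme controls.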
row,IC50,Compound
1,≥ 20 µM,"Cc1nsc(Nc2cncc(C(F)(F)F)n2)c1C(=O)Nc1ccc(OC2CCNCC2)nc1 [Example 13, 3-Methyl-N-[6-(piperidin-4-yloxy)pyridin-3-yl]-5-{[6-(trifluoromethyl)pyrazin-2-yl]-amino}-1,2-thiazole-4-carboxamide]"
2,> 20 µM,"Cc1nsc(Nc2cnc(C(F)(F)F)cn2)c1C(=O)Nc1ccc(OCC2CCN(C(=O)OC(C)(C)C)CC2)nc1 [Example 227, tert-butyl 4-{[(5-{[(3-methyl-5-{[5-(trifluoromethyl)pyrazin-2-yl]amino}-1,2-thiazol-4-yl)carbonyl]amino}pyridin-2-yl)oxy]methyl}piperidine-1-carboxylate]"
3,> 20 µM,"CCN(CC)CCNC(=O)c1cccc(NC(=O)c2c(C)nsc2Nc2cc(C#N)ccn2)c1 [Example 174, 5-[(4-cyanopyridin-2-yl)amino]-N-(3-{[2-(diethylamino)ethyl]carbamoyl}phenyl)-3-methyl-1,2-thiazole-4-carboxamide]"
4,> 20 µM,"Cc1nsc(Nc2cc(C#N)ccn2)c1C(=O)Nc1ccc(C(=O)OC(C)(C)C)cc1 [Example 182, tert-butyl 4-[({5-[(4-cyanopyridin-2-yl)amino]-3-methyl-1,2-thiazol-4-yl}carbonyl)amino]benzoate]"
5,> 20 µM,"CNC(=O)c1ccc(NC(=O)c2c(C)nsc2Nc2cnc3ccccc3n2)cc1F [Example 207, N-[3-fluoro-4-(methylcarbamoyl)phenyl]-3-methyl-5-(quinoxalin-2-ylamino)-1,2-thiazole-4-carboxamide]"
6,> 20 µM and 14 µM,"Cc1nsc(Nc2cnc3ccccc3n2)c1C(=O)Nc1ccc(NCCC(=O)OC(C)(C)C)nc1 [Example 236, tert-butyl N-[5-({[3-methyl-5-(quinoxalin-2-ylamino)-1,2-thiazol-4-yl]carbonyl}amino)pyridin-2-yl]-beta-alaninate]"
7,12 µM,"COc1ccc(NC(=O)c2c(C)nsc2Nc2cnc3ccccc3n2)c(CC#N)n1 [Example 235, N-[2-(cyanomethyl)-6-methoxypyridin-3-yl]-3-methyl-5-(quinoxalin-2-ylamino)-1,2-thiazole-4-carboxamide]"
8,> 20 µM,"Cc1nsc(Nc2cc(C#N)ccn2)c1C(=O)Nc1ccc(NC(=O)OC(C)(C)C)cc1 [Example 177, tert-butyl {4-[({5-[(4-cyanopyridin-2-yl)amino]-3-methyl-1,2-thiazol-4-yl}carbonyl)amino]phenyl}carbamate]"
9,> 20 µM,"Cc1nsc(Nc2cc(C#N)ccn2)c1C(=O)Nc1cccc(C(=O)OC(C)(C)C)c1 [Example 239, tert-butyl 3-[({5-[(4-cyanopyridin-2-yl)amino]-3-methyl-1,2-thiazol-4-yl}carbonyl)amino]benzoate]"
10,≥ 20 µM,"Cc1nsc(Nc2cnc3ccccc3n2)c1C(=O)Nc1ccc(OC2CCNCC2)nc1 [Example 19, 3-Methyl-N-[6-(piperidin-4-yloxy)pyridin-3-yl]-5-(quinoxalin-2-ylamino)-1,2-thiazole-4-carboxamide]"
11,> 20 µM,"Cc1nsc(Nc2cnc3ccccc3n2)c1C(=O)Nc1ccc(NC(=O)C(C)(C)C)cc1 [Example 185, N-{4-[(2,2-dimethylpropanoyl)amino]phenyl}-3-methyl-5-(quinoxalin-2-ylamino)-1,2-thiazole-4-carboxamide]"
12,≥ 20 µM,"Cc1nsc(Nc2cncc(C(F)(F)F)n2)c1C(=O)Nc1ccc(OC2CCN(CC(F)(F)F)CC2)nc1 [Example 16, 3-Methyl-N-(6-{[1-(2,2,2-trifluoroethyl)piperidin-4-yl]oxy}pyridin-3-yl)-5-{[6-(trifluoromethyl)pyrazin-2-yl]amino}-1,2-thiazole-4-carboxamide]"
13,> 20 µM,"Cc1nsc(Nc2cncc(C(F)(F)F)n2)c1C(=O)Nc1ccc(OCCNC(=O)OC(C)(C)C)c(F)c1 [Example 216, tert-butyl [2-(2-fluoro-4-{[(3-methyl-5-{[6-(trifluoromethyl)pyrazin-2-yl]amino}-1,2-thiazol-4-yl)carbonyl]amino}phenoxy)ethyl]carbamate]"
14,> 20 µM,"CC(=O)Nc1cc(NC(=O)c2c(C)nsc2Nc2cnc(C(F)(F)F)cn2)ccc1F [Example 206, N-(3-acetamido-4-fluorophenyl)-3-methyl-5-{[5-(trifluoromethyl)pyrazin-2-yl]amino}-1,2-thiazole-4-carboxamide]"
15,> 20 µM,"Cc1nsc(Nc2cnc3ccccc3n2)c1C(=O)Nc1cccc(NC(=O)C(C)(C)C)c1 [Example 186, N-{3-[(2,2-dimethylpropanoyl)amino]phenyl}-3-methyl-5-(quinoxalin-2-ylamino)-1,2-thiazole-4-carboxamide]"
16,> 20 µM,"Cc1nsc(Nc2cnc(C(F)(F)F)cn2)c1C(=O)Nc1ccc(OCCNC(=O)OC(C)(C)C)nc1 [Example 192, tert-butyl {2-[(5-{[(3-methyl-5-{[5-(trifluoromethyl)pyrazin-2-yl]amino}-1,2-thiazol-4-yl)carbonyl]amino}pyridin-2-yl)oxy]ethyl}carbamate]"
17,> 20 µM,"Cc1nsc(Nc2cnc(C(F)(F)F)cn2)c1C(=O)Nc1cccc(S(C)(=O)=O)c1 [Example 195, 3-methyl-N-[3-(methylsulfonyl)phenyl]-5-{[5-(trifluoromethyl)pyrazin-2-yl]amino}-1,2-thiazole-4-carboxamide]"
18,> 20 µM,"Cc1nsc(Nc2cncc(C(F)(F)F)n2)c1C(=O)Nc1ccc(OC2CCN(C(C)C)CC2)nc1 [Example 218, N-{6-[(1-isopropylpiperidin-4-yl)oxy]pyridin-3-yl}-3-methyl-5-{[6-(trifluoromethyl)pyrazin-2-yl]amino}-1,2-thiazole-4-carboxamide]"
19,5.8 µM,"Cc1nsc(Nc2cnc3ccccc3n2)c1C(=O)Nc1ccc(F)c(C(N)=O)c1 [Example 202, N-(3-carbamoyl-4-fluorophenyl)-3-methyl-5-(quinoxalin-2-ylamino)-1,2-thiazole-4-carboxamide]"
20,> 20 µM,"Cc1nsc(Nc2ccc(C#N)cn2)c1C(=O)Nc1cccc(C(=O)OC(C)(C)C)c1 [Example 240, tert-butyl 3-[({5-[(5-cyanopyridin-2-yl)amino]-3-methyl-1,2-thiazol-4-yl}carbonyl)amino]benzoate]"
21,> 20 µM,"Cc1nsc(Nc2ccc(C#N)cn2)c1C(=O)Nc1cccc(N)c1 [Example 180, N-(3-aminophenyl)-5-[(5-cyanopyridin-2-yl)amino]-3-methyl-1,2-thiazole-4-carboxamide]"
22,> 20 µM,"CNC(=O)c1ccc(NC(=O)c2c(C)nsc2Nc2ccc(C#N)cn2)cc1F [Example 208, 5-[(5-cyanopyridin-2-yl)amino]-N-[3-fluoro-4-(methylcarbamoyl)phenyl]-3-methyl-1,2-thiazole-4-carboxamide]"
23,> 20 µM,"Cc1nsc(Nc2cncc(C(F)(F)F)n2)c1C(=O)Nc1ccc(OCCNC(=O)OC(C)(C)C)nc1 [Example 191, tert-butyl {2-[(5-{[(3-methyl-5-{[6-(trifluoromethyl)pyrazin-2-yl]amino}-1,2-thiazol-4-yl)carbonyl]amino}pyridin-2-yl)oxy]ethyl}carbamate]"
24,> 20 µM,"Cc1nsc(Nc2cncc(C(F)(F)F)n2)c1C(=O)Nc1ccc(OC2CCN(C)CC2)nc1 [Example 219, 3-methyl-N-{6-[(1-methylpiperidin-4-yl)oxy]pyridin-3-yl}-5-{[6-(trifluoromethyl)pyrazin-2-yl]amino}-1,2-thiazole-4-carboxamide]"
25,> 20 µM,"Cc1nsc(Nc2cncc(C(F)(F)F)n2)c1C(=O)Nc1ccc(OC2CCN(CCF)CC2)c(F)c1 [Example 223, N-(3-fluoro-4-{[1-(2-fluoroethyl)piperidin-4-yl]oxy}phenyl)-3-methyl-5-{[6-(trifluoromethyl)pyrazin-2-yl]amino}-1,2-thiazole-4-carboxamide]"
26,> 20 µM,"Cc1nsc(Nc2cnc3ccccc3n2)c1C(=O)Nc1ccc(NC2CCN(C(=O)OC(C)(C)C)CC2)nc1 [Example 234, tert-butyl 4-{[5-({[3-methyl-5-(quinoxalin-2-ylamino)-1,2-thiazol-4-yl]carbonyl}amino)pyridin-2-yl]amino}piperidine-1-carboxylate]"
27,> 20 µM,"COC(=O)c1cc(NC(=O)c2c(C)nsc2Nc2cnc3ccccc3n2)cc(C(=O)OC)c1 [Example 237, dimethyl 5-({[3-methyl-5-(quinoxalin-2-ylamino)-1,2-thiazol-4-yl]carbonyl}amino)isophthalate]"
28,> 20 µM,"Cc1nsc(Nc2cncc(C(F)(F)F)n2)c1C(=O)Nc1ccc(C(=O)NC2CCN(CC(F)F)CC2)cc1 [Example 225, N-N-(4-{[1-(2,2-difluoroethyl)piperidin-4-yl]carbamoyl}phenyl)-3-methyl-5-{[6-(trifluoromethyl)pyrazin-2-yl]amino}-1,2-thiazole-4-carboxamide]"
